Data reported in patent US20260176289A1, “SMALL MOLECULE INHIBITORS OF KRAS PROTEINS” (Merck Sharp & Dohme LLC, priority 2022, published 2026).
Like-named read-outs stand apart in the source and are kept apart here.

How the values were obtained:
KRAS-G13D = KRAS-G13D (Homo sapiens, UniProt P01116, G13D); assay: SOS-catalyzed nucleotide exchange assay (Procedure A, TR-FRET), KRAS-G13D; type: biochemical; details: nucleotide exchange, Procedure A; read-out: KRAS G13D GNE IC50
MKN-1 cells = assay: Cellular phospho-ERK assay, MKN-1 cells (amplified wild-type KRAS); type: cell-based; details: Homo sapiens, read-out: MKN1 pERK IC50
In short: (§1)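 Cells were seeded overnight, then treated 2 h at 37° C with compound in a 10-point, 1:3 titration from 30 μM top final concentration. Lysates were assayed by AlphaLISA SureFire Ultra for p-ERK and total ERK. IC50 came from a 4-parameter logistic fit of the p-ERK/total ERK ratio.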

[1] = target: KRAS-G12C (C51S/C80L/C118S) (Homo sapiens, UniProt P01116, C118S/C51S/C80L/G12C); assay: SOS-catalyzed nucleotide exchange assay (Procedure A, TR-FRET), KRAS-G12C; type: biochemical; details: nucleotide exchange, Procedure A; read-out: KRAS G12C GNE IC50
Chain of KRAS-G12C (C51S/C80L/C118S) (P01116 with tags, fused parts or gaps isoform P01116-2 G12C/C51S/C80L/C118S): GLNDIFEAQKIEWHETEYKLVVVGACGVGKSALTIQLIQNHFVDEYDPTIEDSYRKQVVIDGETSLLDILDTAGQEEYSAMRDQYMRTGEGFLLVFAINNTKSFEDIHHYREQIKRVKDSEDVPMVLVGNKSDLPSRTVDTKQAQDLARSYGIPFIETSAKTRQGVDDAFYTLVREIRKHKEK
In short: (§2)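 Compounds (10-point, 3-fold) were preincubated 60 min at room temperature with a biotinylated RAS/Bodipy-GDP/Tb-streptavidin TR-FRET complex. Exchange was started with human SOS plus 3 mM GTP. RAS/SOS: G12C 3/40 nM, WT 1/40 nM, NRAS 1.25/40 nM (60 min); G12V 1.25/160 nM (90 min). The 520/495 ratio was fit four-parameter.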

KRAS-WT = KRAS-WT (Homo sapiens, UniProt P01116); assay: SOS-catalyzed nucleotide exchange assay (Procedure A, TR-FRET), KRAS-WT; type: biochemical; details: nucleotide exchange, read-out: KRAS WT GNE IC50
Chain of KRAS-WT (P01116 with tags, fused parts or gaps isoform P01116-2): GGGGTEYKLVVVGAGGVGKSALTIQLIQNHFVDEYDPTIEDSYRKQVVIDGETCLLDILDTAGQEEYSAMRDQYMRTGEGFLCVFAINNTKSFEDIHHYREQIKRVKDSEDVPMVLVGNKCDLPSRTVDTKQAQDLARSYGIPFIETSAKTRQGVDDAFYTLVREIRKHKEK
In short: as §2

AsPC-1 cells = assay: Cellular phospho-ERK assay, AsPC-1 cells (homozygous KRAS-G12D); type: cell-based; details: Homo sapiens, ASPC1, 2 h, read-out: AsPC1 pERK IC50
In short: as §1

HRAS = HRAS (Homo sapiens, UniProt P01112); assay: SOS-catalyzed nucleotide exchange assay (Procedure A, TR-FRET), HRAS; type: biochemical; details: read-out: HRAS GNE IC50
Chain of HRAS (P01112 with tags, fused parts or gaps): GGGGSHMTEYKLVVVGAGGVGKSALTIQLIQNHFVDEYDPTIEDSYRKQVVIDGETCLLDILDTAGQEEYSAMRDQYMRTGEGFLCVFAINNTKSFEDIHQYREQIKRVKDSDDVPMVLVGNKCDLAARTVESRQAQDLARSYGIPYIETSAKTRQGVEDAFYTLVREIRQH
In short: (§3)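 Signal ratio (520/495 nm, excitation 340 nm) reports Bodipy-GDP retention on biotinylated RAS after SOS-catalyzed exchange with 3 mM GTP. SOS was 40 nM, except 160 nM for G12V. Room-temperature exchange lasted 60 min (90 min for G12V), following a 60 min compound preincubation.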

KRAS-G12V = KRAS-G12V (Homo sapiens, UniProt P01116, G12V); assay: SOS-catalyzed nucleotide exchange assay (Procedure A, TR-FRET), KRAS-G12V; type: biochemical; details: nucleotide exchange, read-out: KRAS G12V GNE IC50
Chain of KRAS-G12V (P01116 with tags, fused parts or gaps isoform P01116-2 G12V): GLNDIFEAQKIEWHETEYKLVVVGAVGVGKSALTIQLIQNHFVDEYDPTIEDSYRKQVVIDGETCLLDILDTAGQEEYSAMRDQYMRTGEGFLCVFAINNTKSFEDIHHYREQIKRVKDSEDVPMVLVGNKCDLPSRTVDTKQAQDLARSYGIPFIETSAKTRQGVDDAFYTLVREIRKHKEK
In short: as §2

PANC08.13 cells = assay: Cellular phospho-ERK assay, PANC08.13 cells (homozygous KRAS-G12D); type: cell-based; details: Homo sapiens, PANC-08-13, KRAS-G12D, 2 hours, read-out: PANC-08.13 pERK IC50
In short: as §1

SW620 cells = assay: Cellular phospho-ERK assay, SW620 cells (homozygous KRAS-G12V); type: cell-based; details: Homo sapiens, read-out: SW620 pERK IC50
In short: as §1

KRAS-G12D = KRAS-G12D (Homo sapiens, UniProt P01116, G12D); assay: SOS-catalyzed nucleotide exchange assay (Procedure A, TR-FRET), KRAS-G12D; type: biochemical; details: nucleotide exchange, read-out: KRAS G12D GNE IC50
Chain of KRAS-G12D (P01116 with tags, fused parts or gaps isoform P01116-2 G12D): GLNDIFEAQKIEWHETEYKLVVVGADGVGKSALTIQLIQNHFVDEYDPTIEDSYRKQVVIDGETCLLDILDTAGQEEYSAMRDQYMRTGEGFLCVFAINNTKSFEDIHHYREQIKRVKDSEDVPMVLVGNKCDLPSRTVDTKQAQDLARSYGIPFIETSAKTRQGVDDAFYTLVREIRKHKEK
In short: as §3

[2] = amplified wild-type KRAS, 2 hours
[3] = SW-620, 2 hours compound incubation

Chain of KRAS-G13D (P01116 with tags, fused parts or gaps isoform P01116-2 G13D): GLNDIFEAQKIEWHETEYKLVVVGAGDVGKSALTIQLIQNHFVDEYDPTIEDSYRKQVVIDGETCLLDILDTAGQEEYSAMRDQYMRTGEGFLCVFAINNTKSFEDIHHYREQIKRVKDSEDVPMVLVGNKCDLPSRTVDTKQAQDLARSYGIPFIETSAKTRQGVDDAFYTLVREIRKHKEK

| SMILES | IC50 (KRAS-G13D) [nM] | IC50 (MKN-1 cells; [2]) [nM] | IC50 [1] [nM] | IC50 (KRAS-WT) [nM] | IC50 (AsPC-1 cells; KRAS-G12D, 2 hours) [nM] | IC50 (HRAS) [nM] | IC50 (KRAS-G12V) [nM] | IC50 (PANC08.13 cells) [nM] | IC50 (SW620 cells; SW-620, KRAS-G12V, 2 hours) [nM] | IC50 (KRAS-G12D) [nM] | IC50 (MKN-1 cells; 2 hours compound incubation) [nM] | IC50 (AsPC-1 cells; 2 hours compound incubation) [nM] | IC50 (SW620 cells; [3]) [nM] |
| --- | --- | --- | --- | --- | --- | --- | --- | --- | --- | --- | --- | --- | --- |
| Cc1cc2[nH]ncc2c(-c2nccc3c2sc2nc(OC[C@]4(CN(C)C)CC4(F)F)nc(N4CCOC[C@@](C)(O)C4)c23)c1C(F)(F)F [Ex-130, (6S)-4-(2-(((R)-1-((dimethylamino)-methyl)-2,2-di-fluorocyclopropyl)-methoxy)-8-(6-methyl-5-(trifluoro-methyl)-1H-indazol-4-yl)pyrido[4′,3′: 4,5]thieno[2,3-d]pyrimidin-4-yl)-6-methyl-1,4-oxaze-pan-6-ol] | 75.2 | 248 | 101 | 115 | 68.7 | 4920 | 77.2 | 27.7 | 116 | 20.3 |  |  |  |
| CC1CCc2cc3[nH]ncc3c(-c3nccc4c3sc3nc(OC[C@@]56CCCN5C[C@H](F)C6)nc(N5CCOC[C@@](C)(O)C5)c34)c21 (single isomer, unassigned) [Ex-103] | 4.51 | 30.9 | 18.1 | 6.28 | 26.3 | 8010 | 8.72 |  | 19.9 | 2.12 |  |  |  |
| C[C@H](N(C)C)[C@@]1(COc2nc(N3CCOC[C@@](C)(O)C3)c3c(n2)sc2c(-c4c(C5CC5)c(Cl)cc5[nH]ncc45)nccc23)CC1(F)F [Ex-215, (6S)-4-(8-(6-chloro-5-cyclopropyl-1H-indazol-4-yl)-2-(((R)-1-((S)-1-(dimethylamino)-ethyl)-2,2-difluoro-cyclopropyl)meth-oxy)pyrido[4′,3′: 4,5]thieno[2,3-d]pyrimidin-4-yl)-6-methyl-1,4-oxaze-pan-6-ol] | 38.9 |  | 105 | 16 |  | 1610 | 20.9 |  |  | 3.75 | 32.6 | 55.9 | 23 |
| C[C@@]1(O)COCCN(c2nc(OC[C@]3(CN4CC5(CC(F)C5)C4)CC3(F)F)nc3sc4c(-c5c(C6CC6)c(Cl)cc6[nH]ncc56)nccc4c23)C1 [Ex-230] | 13.9 |  | 21.1 | 88.5 |  | 1640 | 70.1 |  |  | 16 | 52.7 | 51.5 | 23.2 |
| C[C@@]1(O)COCCN(c2nc(OC[C@@]34CCCN3C/C(=C\F)C4)nc3sc4c(-c5c(C6(F)CC6)c(Cl)cc6[nH]ncc56)nccc4c23)C1 [Ex-267, (6S)-4-(8-(6-chloro-5-(1-fluorocyclopropyl)-1H-indazol-4-yl)-2-(((S,Z)-2-(fluoromethylene)tetrahydro-1H-pyrrolizin-7a(5H)-yl)methoxy)pyrido[4′,3′:4,5]thieno[2,3-d]pyrimidin-4-yl)-6-methyl-1,4-oxazepan-6-ol] | 9.94 |  | 23.5 | 5.56 |  | 4250 | 8.11 |  |  | 3.26 | 18.7 | 23.6 | 24 |
